Results on one compound are retold here after patent US20110177161A1, “PHARMACEUTICAL COMPOSITIONS OF [5(S)-(2'-HYDROXYETHOXY)-20(S)-CAMPTOTHECIN” (DR. REDDY'S LABORATORIES LIMITED, priority 2007, published 2011).

Data set [1] relates to Saos-2 cells over expressing functional BCRP#4. Briefly: cells. Particulars: Homo sapiens, SAOS-2, 144 h, read-out: BCRP mut#4 (IC50 (nM)). In kind it is cell-based, human. How it is done: (§1) The anticancer effect of 5(S)-(2′-hydroxyethoxy)-20(S)-camptothecin & 5(R)-(2′-hydroxyethoxy)-20(S)-camptothecin were evaluated versus the racemate 5(RS)-(2′-hydroxyethoxy)-20(S)-camptothecin on Saos-2 cells over expressing functional BCRP#4 and non-functional BCRP mut#10. The human osteosarcoma cell line, Saos-2, was obtained from ATCC (American Type Culture Collection, Cat#HTB-85, Manassas, Va.) and were maintained in DMEM containing 10% fetal bovine serum, 1% penicillin/streptomycin, and 2 mM glutamine. Saos-2 cells were transfected with either BCRP#4 to over express functional BCRP or BCRP#10 to over express non-functional BCRP transporter. The cells were plated in 96-well plates at a density of 1000 cells per each well in a 0.1 ml of medium and allowed to attach overnight. The next morning the medium was gently aspirated and serial dilutions of the compounds to be tested were added. The cells were incubated at 37° C. in a 5% CO2 incubator. After 6 days of exposure to the test drugs, 10µl of Alamar blue was added aseptically to each well and the plates were returned to the incubator for 6 hr. The amount of the fluorescent dye produced was measured on a Cytofluor.RTM. 2300 (Millipore, Bedford, Mass.) using an excitation wavelength of 530 nm and emission wavelength of 590 nm. The relative fluorescence units obtained were used to calculate the percentage growth at each concentration in relation to the untreated control values. From the percentage growth values the IC50 (inhibitory concentration required to inhibit the cell growth by 50% compared to control cells growth) values were derived.

Data set [2] relates to Saos-2 cells over expressing non-functional BCRP mut#10. In words: cells. It is filed as cell-based, human. Particulars: Homo sapiens, SAOS-2, 144 h, read-out: BCRP mut#10 (IC50 (nM)). How it is done:
as §1

Data set [3] relates to 34 human cancer cell lines. In words: In vitro cell growth assay, Sulphorhodamine B (SRB). It is filed as cell-based. Particulars: 48 h exposure. As to the method:
Cell proliferation was evaluated by Sulphorhodamine B (SRB) assay where the amount of dye bound to the cells after staining gives a measure of cell growth. Refer to: JNCI, vol 83, No. 11, Jun. 5, 1991, which is incorporated herein by reference.
Briefly, cells (34 human cancer cell lines represented by bladder, breast, CNS, colon, epidermoid, lung, ovarian, melanoma, prostate, renal and uterine cancers) were seeded on a 96-well cell culture plates at a concentration of 10,000 cells per well and incubated at 37 degree C. in a CO2 incubator. Twenty-four hours later, cells were treated with different concentrations of […] dissolved in DMSO to a final concentration of 0.05% in the culture medium and exposed for 48 h. Cells were fixed by adding ice-cold 50% trichloroacetic acid (TCA) and incubating for 1 h at 4° C. The plates were washed with distilled water, air dried and stained with SRB solution (0.4% wt/vol in 1% Acetic acid) for 10 min at room temperature. Unbound SRB was removed by washing thoroughly with 1% acetic acid and the plates were air-dried. The bound SRB stain was solubilized with 10 mM Tris buffer, and the optical densities were read on a spectrophotometric plate reader at a single wavelength of 515 nm. […] From the optical densities the percentage growths were calculated using the following formulae: […]

Data set [4] concerns Human bone marrow mononuclear cells. In words: Human bone marrow assay (CFU-GM colonies). In kind it is cell-based. Particulars: human. As to the method:
Methocult.TM. GF (Cat No: H4534, Poietics, Biowhittakar, USA) medium comprising Methycellulose in iscove's MDM, Fetal bovine serum, Bovine serum albumin, 2-Mercaptoethanol, L-Glutamine, rhStem cell factor, rhGM-CSF and rhIL-3 was used for the assay. Human bone marrow mononuclear cells (Cat No. 2M-125C, Poietics, Biowhittakar, USA) were mixed with Methocult GF and the cell density was adjusted to 3×10^5 cells/ml. From this preparation, 500 μL aliquots were made and […] of 20× drug solution or vehicle was added to each aliquot and mixed thoroughly. 100 μL of clonogenic medium was plated into each well and the plates were allowed to gel at 4° C. for 15 minutes. Plates were incubated at 37 degree C. in a fully humidified atmosphere of 5% CO2 in an incubator for 14 days. CFU-GM colonies were counted under an inverted microscope as aggregates of 50 cells or more. The percentage colony inhibition was calculated using the following formula: 100−[(number of colonies in drug treated wells/Number of colonies in control wells)×100].

Each structure is given as a SMILES string.

Usually IC50 stands for the concentration needed to halve the response being measured. The term GI50 denotes the concentration giving 50% growth inhibition. The low end stands for more potent growth inhibition, the high end for less potent growth inhibition. As to `CC[C@@]1(O)C(=O)OCc2c1cc1n(c2=O)[C@H](OCCO)c2cc3ccccc3nc2-1` [5(R)-(2′-hydroxyethoxy)-20(S)-camptothecin, reference compound], the IC50 in data set [1] was over 2000 nM; in data set [2] it was 1300 nM. The compound further came in with a GI50 in data set [3] of 14.6 µM. Besides, the “Safety Margin GI90/GI50” value in data set [4] was 0.06.
